Structures can show the parent of a compound that is named as a salt.
Target: AaDOP2 (Aedes aegypti, UniProt H6D5H2)
Test: AaDOP2 antagonist screen of the LOPAC1280 library (HEK-CRELuc-Aadop2 cells, luminescence)
Type: cell-based
Conditions: not given

Sequence of AaDOP2 (H6D5H2 1-476): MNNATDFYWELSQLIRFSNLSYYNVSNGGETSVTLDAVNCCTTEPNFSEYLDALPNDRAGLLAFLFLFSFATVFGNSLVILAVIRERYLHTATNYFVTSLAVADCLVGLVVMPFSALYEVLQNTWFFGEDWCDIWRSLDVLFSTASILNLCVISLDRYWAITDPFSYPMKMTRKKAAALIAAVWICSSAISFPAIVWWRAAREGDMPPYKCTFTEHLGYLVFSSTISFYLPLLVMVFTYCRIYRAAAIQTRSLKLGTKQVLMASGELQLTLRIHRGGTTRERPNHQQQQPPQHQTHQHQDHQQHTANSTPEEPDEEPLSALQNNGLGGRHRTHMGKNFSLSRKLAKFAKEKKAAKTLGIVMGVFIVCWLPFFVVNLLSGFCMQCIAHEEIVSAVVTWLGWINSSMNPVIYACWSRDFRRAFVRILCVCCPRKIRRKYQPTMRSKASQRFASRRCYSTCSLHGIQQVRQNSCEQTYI

Compound | Compound effect (percent receptor signaling in presence of test compound, relative lux units relative to the SCH23390 control)
O=C(CCCN1CCC(O)(c2cccc(C(F)(F)F)c2)CC1)c1ccc(F)cc1 [Compound 1221, Trifluperidol hydrochloride] | 68
COC(=O)[C@H]1[C@H]2C[C@H]3c4[nH]c5ccccc5c4CCN3C[C@H]2CC[C@@H]1O [Compound 1062, Rauwolscine hydrochloride] | 87
CCn1cc(C(=O)[O-])c(=O)c2ccc(C)nc21.[Na+] [Compound 852, Nalidixic acid sodium] | 99
Oc1ccc(O)cc1 [Compound 610, Hydroquinone] | 89
O=C(O)/C(=C/c1c(C(=O)O)[nH]c2cc(Cl)cc(Cl)c12)c1ccccc1 [Compound 833, MDL 105,519] | 83
CC(=N)NCCCC[C@H](N)C(=O)O.Cl [Compound 659, L-N6-(1-Iminoethyl)lysine hydrochloride] | 101
NCCCCCCCCCCN [Compound 462, 1,10-Diaminodecane] | 99
C[C@@]12N[C@@H](Cc3ccccc31)c1ccccc12.O=C(O)/C=C\C(=O)O [Compound 817, (-)-MK-801 hydrogen maleate] | 98
CC[C@@H](CO)NC(=O)[C@@H]1C=C2c3cccc4[nH]cc(c34)C[C@H]2N(C)C1 [Compound 752, Methylergonovine maleate] | 107
COc1cc(CC(=O)O)ccc1O [Compound 576, 4-Hydroxy-3-methoxyphenylacetic acid] | 82
COc1ccc2c(c1OC)C(=O)O[C@@H]2[C@H]1c2c(cc3c(c2OC)OCO3)CCN1C.Cl [Compound 876, Noscapine hydrchloride] | 78
CCCC1O[C@@H]2C[C@H]3[C@@H]4CCC5=CC(=O)C=C[C@]5(C)[C@H]4[C@@H](O)C[C@]3(C)[C@]2(C(=O)CO)O1 (stereo partly shown) [Compound 186, Budesonide] | 128
CCCCCCCCCCCCC/C=C/[C@@H](O)[C@@H](N)CO [Compound 1105, Sphingosine] | 106
C[N+](C)(C)CC(=O)O [Compound 170, Betaine hydrochloride] | 86
CC(=O)O[C@H]1C[C@@H]2CC[C@@H]3[C@H](CC[C@@]4(C)[C@H]3C[C@H]([N+]3(C)CCCCC3)[C@@H]4OC(C)=O)[C@@]2(C)C[C@@H]1[N+]1(C)CCCCC1 [Compound 929, Pancuronium bromide] | 96
Cl.NCCCCNS(=O)(=O)c1ccc2c(Cl)cccc2c1 [Compound 18, N-(4-Aminobutyl)-5-chloro-2-naphthalenesulfonamide hydrochloride] | 97
Nc1ncnc2c1ncn2[C@@H]1O[C@H](CO)[C@@H](O)[C@H]1O [Compound 101, Adenosine] | 96
O=C(O)CC[N+](=O)[O-] [Compound 860, 3-Nitropropionic acid] | 91
CN/C(=N/CCSCc1nc[nH]c1C)NC#N [Compound 262, Cimetidine] | 88
CN1CCC(=C2c3ccccc3CC(=O)c3sccc32)CC1 [Compound 687, Ketotifen fumarate] | 4
CC(C)N(CCC(C(N)=O)(c1ccccc1)c1ccccn1)C(C)C (stereo not shown) [Compound 409, Disopyramide] | 95

Compound | Compound effect (percent receptor signaling in presence of test compound, relative lux units relative to the SCH23390 control)
Oc1ccc(C2CNCCc3c2cc(O)c(O)c3Cl)cc1 (stereo not shown) [Compound 528, Fenoldopam bromide] | 112
Cl.Cl.Oc1ccc2c3c1O[C@H]1c4[nH]c5c(c4C[C@@]4(O)[C@@H](C2)N(CC2CC2)CC[C@]314)C[C@@]1(O)[C@H]2Cc3ccc(O)c4c3[C@@]1(CCN2CC1CC1)[C@H]5O4 [Compound 841, nor-Binaltorphimine dihydrochloride] | 98
O=C(O)C=Cc1c[nH]cn1 [Compound 1238, 4-Imidazoleacrylic acid] | 74
CNCC[C@@H](Oc1ccccc1C)c1ccccc1 [Compound 1209, Tomoxetine] | 79
NS(=O)(=O)c1cc2c(cc1Cl)NC(C1CC3C=CC1C3)NS2(=O)=O (stereo not shown) [Compound 321, Cyclothiazide] | 93
N[C@H](CO)C(=O)O [Compound 1101, D-Serine] | 100
CCCCS(=N)(=O)CC[C@H](N)C(=O)O (stereo partly drawn) [Compound 167, L-Buthionine-sulfoximine] | 81
Cc1[nH]c2ccc(O)cc2c1CCN.O=C(O)/C=C\C(=O)O [Compound 818, 2-Methyl-5-hydroxytryptamine maleate] | 102
O=C(O)[C@@H]1CCN1 [Compound 19, L-azetidine-2-carboxylic acid] | 115
CN(C)CCOC(C)(c1ccccc1)c1ccccn1 (stereo not shown) [Compound 379, Doxylamine succinate] | 85
CC(C)(C(=O)O)c1ccc(C(O)CCCN2CCC(C(O)(c3ccccc3)c3ccccc3)CC2)cc1 (stereo not shown) [Compound 537, Fexofenadine hydrochloride] | 87
CC1=C(CC(=O)O)c2cc(F)ccc2/C1=C\c1ccc([S+](C)[O-])cc1 (stereo not shown) [Compound 1115, Sulindac] | 107
NCCCCNCCCN [Compound 1089, Spermidine trihydrochloride] | 104
CS(=O)(=O)Nc1ccc([N+](=O)[O-])cc1Oc1ccccc1 [Compound 838, Nimesulide] | 88
N[C@@H](Cc1c[nH]c2ccc(O)cc12)C(=O)O [Compound 615, 5-Hydroxy-L-tryptophan] | 126
Cn1c(=O)c2[nH]cnc2n(C)c1=O [Compound 1154, Theophylline] | 98
CC(C)(CO)Cc1cc(C(C)(C)C)c(O)c(C(C)(C)C)c1 [Compound 225, CGP-7930] | 89
O=C(O)[C@H]1CCCN[C@H]1C(=O)O (racemic) [Compound 985, (±)-cis-Piperidine-2,3-dicarboxylic acid] | 108
CC[N+](CC)(CC)CCOc1cccc(OCC[N+](CC)(CC)CC)c1OCC[N+](CC)(CC)CC [Compound 559, Gallamine triethiodide] | 120
COc1cc2nc(N3CCN(C(=O)OCc4ccccc4)[C@H](C(=O)NC(C)(C)C)C3)nc(N)c2cc1OC [Compound 1167, L-765,314] | 112

Same assay, conditions: 10 µM compound, 300 nM dopamine, 2 hr

Compound | % of the SCH23390 effect (percent inhibition of receptor response relative to the SCH23390 control)
Cc1nc2sccn2c(=O)c1CCN1CCC(=C(c2ccccc2)c2ccc(F)cc2)CC1 [Compound 401, Diacylglycerol kinase inhibitor I] | 90%

Same assay, conditions: 10 µM compound, 300 nM dopamine, 2 hr; hit = compound effect <20

Compound | Compound effect (percent receptor signaling in presence of test compound, relative lux units relative to the SCH23390 control)
CCN(CC)CCNC(=O)c1cc(Cl)c(N)cc1OC.Cl [Compound 733, Metoclopramide hydrochloride] | 101%
Ceramide [Compound 235] | 87%
CCCCCCCCCCCCCCC[C@H](O)[C@H](N)CO (racemic) [Compound 406, DL-erythro-Dihydrosphingosine] | 88%
Cl.Cl.NCCC(=O)NCCc1cnc[nH]1 [Compound 237, Carcinine dihydrochloride] | 95%
Br.Br.N=C(N)SCCc1ccc(CCSC(=N)N)cc1 [Compound 979, 1,4-PBIT dihydrobromide] | 120%
Cc1nc2sccn2c(=O)c1CCN1CCC(=C(c2ccccc2)c2ccc(F)cc2)CC1 [Compound 401, Diacylglycerol kinase inhibitor I] | 10%
L-Leucinethiol, oxidized dihydrochloride [Compound 709] | 81%
NN=C(N)N.NN=C(N)N.O=S(=O)(O)O [Compound 77, Aminoguanidine hemisulfate] | 107%
NC(N)=NC(=O)c1nc(Cl)c(N2CCCCCC2)nc1N [Compound 107, 5-(N,N-hexamethylene)amiloride] | 82%

Same assay, conditions: read-out: % of the SCH23390 effect (percent inhibition of receptor response relative to the SCH23390 control)

Compound | inhibition at 10 µM
CN1CCC(=C2c3ccccc3CC(=O)c3sccc32)CC1 [Compound 687, Ketotifen fumarate] | 96%

Source: article PMC3265452 (PLoS Neglected Tropical Diseases, 2012)
